{"source": "paper PMC5353671", "about": "“A bacterial aromatic aldehyde dehydrogenase critical for the efficient catabolism of syringaldehyde” (Scientific Reports, 2017)", "key": {"SLG_11410": {"molecular_target": "T1, SLG_11410 (Sphingobium sp. SYK-6, UniProt G2IPY8)", "T1 construct": "coding region in pET21a(+), extract of E. coli BL21(DE3)", "T1 sequence (G2IPY8 1-498)": "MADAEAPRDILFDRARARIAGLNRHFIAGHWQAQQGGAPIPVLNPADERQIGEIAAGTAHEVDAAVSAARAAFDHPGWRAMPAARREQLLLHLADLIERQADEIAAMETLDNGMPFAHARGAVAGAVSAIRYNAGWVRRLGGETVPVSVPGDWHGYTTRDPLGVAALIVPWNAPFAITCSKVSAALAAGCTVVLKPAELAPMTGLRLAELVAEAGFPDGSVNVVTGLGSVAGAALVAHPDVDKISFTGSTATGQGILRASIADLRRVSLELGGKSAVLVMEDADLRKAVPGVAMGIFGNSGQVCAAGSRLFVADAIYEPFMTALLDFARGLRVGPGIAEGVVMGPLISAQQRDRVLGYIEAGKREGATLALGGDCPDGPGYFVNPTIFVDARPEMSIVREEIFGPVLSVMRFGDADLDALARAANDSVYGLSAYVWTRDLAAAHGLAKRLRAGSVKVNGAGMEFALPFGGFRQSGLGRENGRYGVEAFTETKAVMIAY", "experiment": "HPLC, E. coli cell extract", "type": "biochemical", "settings": "100 μM substrate, 500 μM NAD+, 30 °C"}, "SLG_38120": {"molecular_target": "T2, SLG_38120 (Sphingobium sp. SYK-6, UniProt G2IRC1)", "T2 construct": "gene feaB; coding region in pET21a(+), extract of E. coli BL21(DE3)", "T2 sequence (G2IRC1 1-493)": "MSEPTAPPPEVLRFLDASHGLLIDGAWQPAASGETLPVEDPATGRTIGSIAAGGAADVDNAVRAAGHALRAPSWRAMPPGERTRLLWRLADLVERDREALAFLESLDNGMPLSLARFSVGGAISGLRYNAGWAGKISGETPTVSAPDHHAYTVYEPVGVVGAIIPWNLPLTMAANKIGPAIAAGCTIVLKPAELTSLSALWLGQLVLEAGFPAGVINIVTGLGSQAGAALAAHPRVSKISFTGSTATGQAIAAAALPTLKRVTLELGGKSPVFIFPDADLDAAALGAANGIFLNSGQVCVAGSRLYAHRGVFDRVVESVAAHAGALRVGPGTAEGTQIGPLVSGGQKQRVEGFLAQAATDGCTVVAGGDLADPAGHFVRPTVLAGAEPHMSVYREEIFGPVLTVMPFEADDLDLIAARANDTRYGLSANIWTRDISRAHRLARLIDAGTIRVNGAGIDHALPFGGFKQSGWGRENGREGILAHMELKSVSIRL", "experiment": "HPLC, E. coli cell extract", "type": "biochemical", "settings": "100 μM substrate, 500 μM NAD+, 30 °C"}}, "data": [{"smiles": "COc1cc(C=O)cc(OC)c1O", "note": "[syringaldehyde]", "values": [{"measurement": "specific activity", "setting": "SLG_11410", "value": "All these aromatic ALDH gene products converted SN into syringate"}, {"measurement": "specific activity", "setting": "SLG_38120", "value": "All these aromatic ALDH gene products converted SN into syringate"}]}]}
